Columns and labels:
macrophages [1] = experiment: Inhibitory effect of N^GMMA on NO production induced by liquids of Example 1 in macrophages; format: cell-based, mice; settings: macrophages with liquids (1 mg/mL) of Example 1 and IFN-γ; FIG. 3
Method: (§1) The amount of NO production from macrophages was measured by Griess reaction by quantitizing nitrite (NO2^−), oxides of NO, accumulated on the broth. That is, 100 μL of Griess reagents in which 0.1% naphthylethylene diaminedihydrochloride and 1% sulfanilamide is mixed at the same amount and 100 μL of culture media was mixed, and after 10 minutes, absorbance was measured at 540 nm by ELISA reader. Standard curve using sodium nitrite as standard substance was drawn and the concentration of NO was determined from the absorbance.
To investigate if iNOS production from macrophages by the composition of the present invention is included in L-arginine-dependent process, the macrophages were treated liquids (1 mg/mL) of Example 1 in the presence of IFN-γ and NGMMA, the competitive inhibitor of NO production, and the amount of NO production was measured by the same method as Experiment 2.

macrophages [2] = experiment: Inhibiting effect on iNOS production by NF-kB inhibitor (NO2^- concentration in macrophages); format: cell-based, mice
Method: as §1
Hereupon, macrophages were treated with recombinant IFN-γ (rIFN-γ) and liquids (1 mg/mL) of Example 1 followed by treatment with pyrrolidine dithiocarbamnate (PDTC) and N^α-Tosyl-phenylalanyl chloromethyl ketone (TPCK), which are NF-kB inhitors, respectively and the change of concentration of NO2^− was observed together with control group. The results are shown in the hereinbelow Table 1 [Inhibitory effect on iNOS production by NF-kB inhibitor].

`CNC(=N)NCCC[C@H](N)C(=O)O` [N^GMMA, N^G-monomethyl-L-arginine] was tested, and the “amount of NO production as the amount of N^GMMA increases” value (macrophages [1]) was “tendency to decrease”.

For `S=C(S)N1CCCC1` [PDTC, pyrrolidine dithiocarbamnate], the “Concentration of NO2^-” value (macrophages [2]; rIFN-γ (10 U/mL) + Liquids of Example 1 (1 mg/mL) + PDTC (100 μM)) was 10.5 ± 2.8.

B1: rIFN-γ: recombinant IFN-γ (rIFN-γ), used at 10 U/mL (protein, UniProt P01579 24-161, looked up)
Interferon gamma: QDPYVKEAENLKKYFNAGHSDVADNGTLFLGILKNWKEESDRKIMQSQIVSFYFKLFKNFKDDQSIQKSVETIKEDMNVKFFNSNKKKRDDFEKLTNYSVTDLNVQRKAIHELIQVMAELSPAAKTGKRKRSQMLFRG
With B1 the “Concentration of NO2^-” value (macrophages [2]; rIFN-γ (10 U/mL) only) was 32 ± 3.2.

— patent US7118767B2, “Pharmaceutical composition for increasing the production of nitric oxide and IFN-γ, and process for preparation thereof” (Jakwang Co., Ltd., priority 2001, dated 2006)
